Experimental data published in patent US4255435A, “Triazole compounds” (priority 1980, dated 1981).

Columns and labels:
[1] = system: larvae of the diamond back moth (Plutella maculipennis); assay: Mortality of larvae of the diamond back moth on treated cabbage leaf; format: in vivo; settings: Table 1; cabbage leaf dipped in test solution, mortality after 24 + 24 hours, two replicates; 2880 min
Experimental: (§1) Ten larvae were placed in a tube together with a square inch of cabbage leaf which had been dipped in the test solution and allowed to dry. After twenty-four hours untreated cabbage was added for food and after a further twenty-four hours an assessment was made of the mortality of the larvae.
Two replicates were carried out for each test compound and test solutions of varying concentrations employed so that an LD50 value could be calculated.

[2] = system: larvae of the cabbage white butterfly (Pieris brassicae); assay: Mortality of larvae of the cabbage white butterfly on treated cabbage leaf; format: in vivo; settings: Table 3; cabbage leaf dipped in test solution, mortality after 24 + 24 hours, two replicates; 2880 min
Experimental: This example illustrates the activity of compounds of the invention against larvae of the cabbage white butterfly (Pieris brassicae).
as §1

[3] = system: larvae of the codling moth (Cydia pomonella); assay: Codling moth larvae on sprayed apple (number of strikes); format: in vivo; settings: Table 5, after five days, two replicates, 7200 min
Description: This example illustrates the activity of compounds of the invention against the larvae of the codling moth (Cydia pomonella).
An apple sprayed with test solution was allowed to dry and a perspex ring of 1 inch diameter was attached to the apple. Ten larvae were then placed on the apple surface and contained within the ring by means of a muslin covering. After five days an assessment of mortality was made by counting the number of strikes (i.e. the number of entry holes) made by the larvae.

aphid Megoura viciae = assay: Aphids on sprayed broad bean plants; format: in vivo; settings: Table 6; sprayed infested broad bean plants, 24 hours
Experimental: Broad bean plants 3 to 5 cm. high were infested with aphids and then sprayed with an aqueous dispersion containing varying concentrations of test compound. Each plant was kept under a lamp glass for 24 hours and then examined. In this way an LD50 value for the compounds was calculated.

[4] = system: eggs of the cabbage root fly (Erioischia brassicae); assay: Egg hatch of cabbage root fly eggs in test solution; format: in vivo; settings: Table 4; eggs stored six days, egg hatch counted, two replicates; 8640 min
Description: This example illustrates the activity of compounds of the invention against the eggs of the cabbage root fly (Erioischia brassicae).
The eggs were then stored for six days and the egg hatch then counted.

[5] = system: nematode Meloidogyne incognita incognita; assay: Root knots of tomato plants in nematode-infested treated soil; format: in vivo; settings: 100 parts per million per unit volume of soil, 30° C., ten days; untreated controls average more than 20 knots
Experimental: This example illustrates the activity of compounds of the invention against the nematode Meloidogyne incognita incognita.
Small tomato plants were transferred to containers with infested soil. Sufficient test compound to give a concentration of 100 parts per million per unit volume of soil was poured onto the soil and the containers suspended in warm water at 30° C.
After ten days the plants were knocked out of the containers and the roots washed clean, the number of knots being noted. The latter was an indication of activity and a low score indicated high activity.

insects = assay: Insecticidal activity; format: in vivo; settings: in words
Mammalian toxicity = format: in vivo; settings: in words
[6] = acute
[7] = acute; remark: listed apart in the source

Molecule | ACTIVITY LD50 [1] [p.p.m.] | ACTIVITY LD50 [2] [p.p.m.] | ACTIVITY LD50 [3] [p.p.m.] | ACTIVITY LD50 (aphid Megoura viciae) [p.p.m.] | ACTIVITY LD50 [4] [p.p.m.] | number of knots on roots [5] [knots] | insecticidal activity (insects) | mammalian toxicity (Mammalian toxicity) | mammalian toxicity when presented as a powder formulation (Mammalian toxicity; (wettable) powder formulation, listed as first compound) | mammalian toxicity when presented as a powder formulation (Mammalian toxicity; wettable powder formulation) | Oral toxicity (rat) LD50 [6] [mg/kg] | Dermal toxicity (rat) LD50 (acute, dermal, rat) [mg/kg] | effect of wettable powder formulation on dermal toxicity (in words, wettable powder formulation) | Oral toxicity (mouse) LD50 [7] [mg/kg]
1(2)-N,N-dimethylcarbamoyl-3-isopropyl-5-methylthio-1,2,4-triazole [methyl methyl isopropyl methyl] | 160 | 59 | 37 | 1.1 |  |  |  |  |  |  |  |  |  | 
1(2)-N,N-dimethylcarbamoyl-3-t-butyl-5-but-2-enylthio-1,2,4-triazole [methyl methyl t-butyl but-2-enyl] | 220 | 27 | 10 | 0.19 | 1.2 | ≤ 2 | high insecticidal activity | low mammalian toxicity | sufficiently low | sufficiently low mammalian toxicity | 40 to 80 | 40 | reduces the dermal toxicity | 80 to 160
CSc1nc(C(C)(C)C)nn1C(=O)N(C)C [methyl methyl t-butyl methyl, 1-N,N-dimethylcarbamoyl-3-t-butyl-5-methylthio-1,2,4-triazole] |  |  |  |  |  | ≤ 2 | insecticidally active | too high to permit the more widespread use |  |  |  |  |  | 
C#CCSc1nc(C(C)(C)C)nn1C(=O)N(C)C [methyl methyl t-butyl prop-2-ynyl, 1(2)-N,N-dimethylcarbamoyl-3-t-butyl-5-prop-2-ynylthio-1,2,4-triazole] | 33 | 27 |  | 1.1 | 0.8 | ≤ 2 |  |  |  |  |  |  |  | 
